In patent US20250230193A1, “CYCLIC COMPOUND HAVING SELECTIVE KRAS INHIBITORY EFFECT ON HRAS AND NRAS” (CHUGAI SEIYAKU KABUSHIKI KAISHA, priority 2022, published 2025):
Where a SMILES comes first, the peptide text is derived from it. Bridges are numbered along the chain shown (N, C = ends). [ ]: non-standard residue; d: D form. The star is where a group is joined. hPhe(3-Cl-4-CF3) = N[C@@H](CCc1ccc(C(F)(F)F)c(Cl)c1)C(=O)O; NPrPhe(4-CF3) = CCCN[C@@H](Cc1ccc(C(F)(F)F)cc1)C(=O)O; NMeAbu(4,4,4-F3) = CN[C@@H](CC(F)(F)F)C(=O)O; NMeGly(cPent) = CN[C@H](C(=O)O)C1CCCC1; Pro(4,4-F2) = O=C(O)[C@@H]1CC(F)(F)CN1; Pro(4,4-Me2) = CC1(C)CN[C@H](C(=O)O)C1; NMeD = CN[C@@H](CC(=O)O)C(=O)O; NMeL = CN[C@@H](CC(C)C)C(=O)O; Morpholide = C1CN(*)CCO1; NMeA = CN[C@@H](C)C(=O)O; Ac5c = NC1(C(=O)O)CCCC1; Aze = O=C(O)[C@@H]1CCN1; Ac4c = NC1(C(=O)O)CCC1; Sar = CNCC(=O)O

What was measured:
[1] = target: GDP-bound NRAS wild-type protein (Homo sapiens, UniProt P01111); experiment: Binding to NRAS by surface plasmon resonance (SPR), Single Cycle Kinetics; conditions: SPR
Chain of GDP-bound NRAS wild-type protein (P01111 whole entry): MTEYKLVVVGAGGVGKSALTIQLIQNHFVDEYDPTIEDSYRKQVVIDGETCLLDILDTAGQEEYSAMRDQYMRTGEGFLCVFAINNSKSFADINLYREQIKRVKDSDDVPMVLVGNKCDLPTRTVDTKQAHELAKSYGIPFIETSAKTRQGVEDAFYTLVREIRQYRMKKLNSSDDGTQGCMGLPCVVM

[2] = target: GDP-bound HRAS wild-type protein (Homo sapiens, UniProt P01112); experiment: Binding to HRAS by surface plasmon resonance (SPR), Single Cycle Kinetics; conditions: SPR
Chain of GDP-bound HRAS wild-type protein (P01112 whole entry): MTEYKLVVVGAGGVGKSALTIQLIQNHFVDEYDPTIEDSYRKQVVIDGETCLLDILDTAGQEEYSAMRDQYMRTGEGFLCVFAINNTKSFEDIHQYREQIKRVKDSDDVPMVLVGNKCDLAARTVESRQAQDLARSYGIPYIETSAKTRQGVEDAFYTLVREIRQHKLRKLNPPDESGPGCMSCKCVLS

For `CCO[C@@H]1C[C@H]2C(=O)NC3(CCCC3)C(=O)N(C)[C@@H](C3CCCC3)C(=O)N(C)[C@H](C(=O)N3CCOCC3)CC(=O)N(C)[C@@H](CC(C)C)C(=O)N[C@@H]([C@@H](C)CC)C(=O)N(C)CC(=O)N(C)[C@H]3CC(C)=CCN(C3=O)[C@@H](Cc3ccc(C(F)(F)F)cc3)C(=O)N(C)CC(=O)N[C@@H](CCc3cc(F)c(C(F)(F)F)c(F)c3)C(=O)N2C1` [PP1038], the “NRAS/KRAS (ratio of KD value with respect to NRAS to KD value with respect to KRAS)” value ([1]; KD ratio, GDP-bound NRAS wild-type vs GDP-bound KRAS wild-type) was “C (A compound having a KD ratio of 0.1 or more and less than 3 is denoted as C)” and the “HRAS/KRAS (ratio of KD value with respect to HRAS to KD value with respect to KRAS)” value ([2]; KD ratio, GDP-bound HRAS wild-type vs GDP-bound KRAS wild-type) was “C (A compound having a KD ratio of 0.1 or more and less than 3 is denoted as C)”.

For `CC[C@H](C)[C@@H]1NC(=O)[C@H](CC(C)C)N(C)C(=O)C[C@@H](C(=O)N2CCOCC2)N(CC)C(=O)[C@H](C2CCCC2)N(C)C(=O)C2(CCCC2)NC(=O)[C@@H]2CCCN2C(=O)[C@H](CCc2cc(F)c(C(F)(F)F)c(F)c2)NC(=O)CN(C)C(=O)[C@H](Cc2ccc(C(F)(F)F)cc2)N2CCCC[C@@H](C2=O)N(C)C(=O)CN(C)C1=O` [PP0539], the “NRAS/KRAS (ratio of KD value with respect to GDP-bound NRAS wild-type protein to KD value with respect to KRAS)” value [1] was “B (a compound having 3 or more and less than 10 is denoted as B)” and the “HRAS/KRAS (ratio of KD value with respect to GDP-bound HRAS wild-type protein to KD value with respect to KRAS)” value [2] was “B (a compound having 3 or more and less than 10 is denoted as B)”.

With `CCCN1C(=O)[C@@H]2CCN2C(=O)[C@H](C)N(C)C(=O)[C@H]([C@@H](C)CC)NC(=O)[C@H](CC(F)(F)F)N(C)C(=O)C[C@@H](C(=O)N2CCOCC2)N(C)C(=O)[C@H](C2CCCC2)N(C)C(=O)C2(CCCC2)NC(=O)[C@@H]2CC(F)(F)CN2C(=O)[C@H](CCc2ccc(C(F)(F)F)c(Cl)c2)NC(=O)CN(C)C(=O)[C@@H]1Cc1ccc(C(F)(F)F)cc1` [PP0203] ([NMeAbu(4,4,4-F3)]I[NMeA][Aze][NPrPhe(4-CF3)][Sar][hPhe(3-Cl-4-CF3)][Pro(4,4-F2)][Ac5c][NMeGly(cPent)][NMeD]-Morpholide; lactam N-11) the “NRAS/KRAS (ratio of KD for GDP-bound NRAS wild-type to KD for KRAS)” value [1] was “C (A compound having a KD ratio of 0.1 or more and less than 3 is denoted as C)” and the “HRAS/KRAS (ratio of KD for GDP-bound HRAS wild-type to KD for KRAS)” value [2] was “C (A compound having a KD ratio of 0.1 or more and less than 3 is denoted as C)”.

In the case of `CCCN1C(=O)CN(C)C(=O)CN(C)C(=O)[C@H]([C@@H](C)CC)NC(=O)[C@H](CC(C)C)N(C)C(=O)C[C@@H](C(=O)N2CCOCC2)N(C)C(=O)[C@H](C2CCCC2)N(C)C(=O)C2(CCCC2)NC(=O)[C@@H]2CC(C)(C)CN2C(=O)[C@H](CCc2ccc(C(F)(F)F)c(Cl)c2)NC(=O)CN(C)C(=O)[C@@H]1Cc1ccc(C(F)(F)F)cc1` [PP0446] ([NMeL]I[Sar][Sar][NPrPhe(4-CF3)][Sar][hPhe(3-Cl-4-CF3)][Pro(4,4-Me2)][Ac5c][NMeGly(cPent)][NMeD]-Morpholide; lactam N-11), the “NRAS/KRAS (ratio of KD value with respect to GDP-bound NRAS wild-type protein to KD value with respect to KRAS)” value [1] was “B (a compound having 3 or more and less than 10 is denoted as B)” and the “HRAS/KRAS (ratio of KD value with respect to GDP-bound HRAS wild-type protein to KD value with respect to KRAS)” value [2] was “C (A compound having a KD ratio of 0.1 or more and less than 3 is denoted as C)”.

For `CCCN1C(=O)[C@@H]2CCN2C(=O)CN(C)C(=O)[C@H]([C@@H](C)CC)NC(=O)[C@H](CC(C)C)N(C)C(=O)C[C@@H](C(=O)N(C)C)NC(=O)[C@H](C2CCCC2)N(C)C(=O)C2(CCC2)NC(=O)[C@@H]2CC(F)(F)CN2C(=O)[C@H](CCc2ccc(C(F)(F)F)c(Cl)c2)NC(=O)CN(C)C(=O)[C@@H]1Cc1ccc(C(F)(F)F)cc1` [PP0388] ([NMeL]I[Sar][Aze][NPrPhe(4-CF3)][Sar][hPhe(3-Cl-4-CF3)][Pro(4,4-F2)][Ac4c][NMeGly(cPent)]D-NMe2; lactam N-11), the “NRAS/KRAS (ratio of KD for GDP-bound NRAS wild-type to KD for KRAS)” value [1] was “C (A compound having a KD ratio of 0.1 or more and less than 3 is denoted as C)” and the “HRAS/KRAS (ratio of KD for GDP-bound HRAS wild-type to KD for KRAS)” value [2] was “B (a compound having 3 or more and less than 10 is denoted as B)”.

For `CCC[C@H]1C(=O)N[C@@H]([C@@H](C)CC)C(=O)N(C)CC(=O)N(C)[C@H]2CCCCN(C2=O)[C@@H](Cc2ccc(C(F)(F)F)cc2)C(=O)N(C)CC(=O)N[C@@H](CCc2cc(F)c(C(F)(F)F)c(F)c2)C(=O)N2C[C@H](OCC)C[C@H]2C(=O)NC2(CCC2)C(=O)N(C)[C@@H](C2CCCC2)C(=O)N(C)[C@H](C(=O)N2CCOCC2)CC(=O)N1C` [PP0709], the “NRAS/KRAS (ratio of KD value with respect to GDP-bound NRAS wild-type protein to KD value with respect to KRAS)” value [1] was “C (A compound having a KD ratio of 0.1 or more and less than 3 is denoted as C)” and the “HRAS/KRAS (ratio of KD value with respect to GDP-bound HRAS wild-type protein to KD value with respect to KRAS)” value [2] was “B (a compound having 3 or more and less than 10 is denoted as B)”.

`CC[C@H](C)[C@@H]1NC(=O)[C@H](CC(C)C)N(C)C(=O)C[C@@H](C(=O)N2CCOCC2)N(C)C(=O)[C@H](C2CCCC2)N(C)C(=O)C2(CCCC2)NC(=O)[C@@H]2CCCN2C(=O)[C@H](CCc2ccc(C(F)(F)F)c(Cl)c2)NC(=O)CN(C)C(=O)[C@H](Cc2ccc(C)cc2)N2CC=CC[C@@H](C2=O)N(C)C(=O)CN(C)C1=O` [PP0460] was tested, and the “NRAS/KRAS (ratio of KD value with respect to GDP-bound NRAS wild-type protein to KD value with respect to KRAS)” value [1] was “C (A compound having a KD ratio of 0.1 or more and less than 3 is denoted as C)” and the “HRAS/KRAS (ratio of KD value with respect to GDP-bound HRAS wild-type protein to KD value with respect to KRAS)” value [2] was “C (A compound having a KD ratio of 0.1 or more and less than 3 is denoted as C)”.
